In the NIST ThermoML archive (doi:10.1016/j.jct.2006.03.010):
± gives the expanded uncertainty stated by the source.

Experiment: xn = mol fraction of the nth substance listed
Details: 308.15 K, 101 kPa, Liquid; for speed of sound: Linear variable-path acoustic interferometer

ClC(Cl)Cl [trichloromethane] + CCO
Details	mass density [kg/m3]	speed of sound [m/s]	viscosity [mPa·s]
x1 = 0.0522	824.87 ± 0.5	1092 ± 3	0.902 ± 0.013
x1 = 0.1007	868.7 ± 0.53	1076 ± 3	0.89 ± 0.013
x1 = 0.1468	909.11 ± 0.56	1062 ± 3	0.869 ± 0.012
x1 = 0.2014	955.3 ± 0.6	1046 ± 3	0.836 ± 0.012
x1 = 0.2505	994.85 ± 0.63	1034 ± 3	0.803 ± 0.012
x1 = 0.3005	1033.7 ± 0.66	1022 ± 2	0.764 ± 0.011
x1 = 0.3491	1069.92 ± 0.7	1011 ± 2	0.732 ± 0.011
x1 = 0.3999	1106.5 ± 0.73	1000 ± 2	0.696 ± 0.011
x1 = 0.4505	1141.59 ± 0.77	991 ± 2	0.665 ± 0.01
x1 = 0.5045	1177.49 ± 0.81	982 ± 2	0.64 ± 0.01
x1 = 0.5509	1207.46 ± 0.85	975 ± 2	0.613 ± 0.01
x1 = 0.6007	1238.37 ± 0.89	967 ± 2	0.596 ± 0.01
x1 = 0.6492	1267.81 ± 0.93	962 ± 2	0.58 ± 0.01
x1 = 0.7008	1297.8 ± 0.97	957 ± 2	0.569 ± 0.01
x1 = 0.7496	1325.84 ± 1	953 ± 2	0.562 ± 0.01
x1 = 0.8059	1357.1 ± 1.1	950 ± 2	0.551 ± 0.01
x1 = 0.8544	1383.35 ± 1.1	949 ± 2	0.549 ± 0.01
x1 = 0.8994	1407.35 ± 1.1	949 ± 2	0.544 ± 0.009
x1 = 0.9498	1433.5 ± 1.2	948 ± 2	0.531 ± 0.009
x1 = 1	1459.45 ± 1.2	950 ± 2	0.513 ± 0.009
